One may read the Ki as the dissociation constant of the complex between target and ligand, obtained from inhibition or displacement.

Where only a bound is given, the exact number is not on record here.

In one assay the target is T1, human GlyT1c transporter (Homo sapiens, UniProt P48067).
T1 construct: expressed in transfected cells; host or cells: CHO cells (recombinant; line hGlyT1c_5_CHO is named for the uptake assay)
T1 sequence (P48067 1-706): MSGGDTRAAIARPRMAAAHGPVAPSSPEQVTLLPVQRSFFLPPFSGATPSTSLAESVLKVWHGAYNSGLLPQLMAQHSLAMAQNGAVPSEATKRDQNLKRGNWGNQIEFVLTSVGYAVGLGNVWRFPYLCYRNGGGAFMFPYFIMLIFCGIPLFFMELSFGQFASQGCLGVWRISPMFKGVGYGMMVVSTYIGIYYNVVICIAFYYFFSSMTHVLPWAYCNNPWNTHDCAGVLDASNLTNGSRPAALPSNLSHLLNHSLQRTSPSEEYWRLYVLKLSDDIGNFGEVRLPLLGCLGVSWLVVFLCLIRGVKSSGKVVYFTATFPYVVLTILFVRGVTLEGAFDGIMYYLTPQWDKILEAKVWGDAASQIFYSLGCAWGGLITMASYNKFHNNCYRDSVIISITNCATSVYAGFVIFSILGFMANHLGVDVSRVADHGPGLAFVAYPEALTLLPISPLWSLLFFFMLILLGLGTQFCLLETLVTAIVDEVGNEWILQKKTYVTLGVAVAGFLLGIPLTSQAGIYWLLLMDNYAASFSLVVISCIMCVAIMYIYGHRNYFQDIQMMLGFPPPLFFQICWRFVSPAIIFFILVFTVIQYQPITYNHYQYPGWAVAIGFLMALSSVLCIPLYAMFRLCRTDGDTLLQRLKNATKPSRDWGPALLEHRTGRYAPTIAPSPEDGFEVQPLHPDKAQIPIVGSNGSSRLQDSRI
In words: Radioligand binding assay using recombinant CHO cell membranes expressing human GlyT1. As to conditions: radioligand binding to human GlyT1c transporter-expressing membranes. The text has this: 2. Radioligand binding assays using recombinant CHO cell membranes expressing human GlyT1: […]
Turning to `Cn1cnc(S(=O)(=O)N2C[C@@H](C(=O)Nc3ccc(F)c(OC(F)(F)F)c3)[C@H](c3ccc(F)cc3)C2)c1` (relative stereo) [Example 370, Trans-4-(4-fluorophenyl)-N-[4-fluoro-3-(trifluoromethoxy)phenyl]-1-[(1-methyl-1H-imidazol-4-yl)sulfonyl]pyrrolidine-3-carboxamide], the Ki is ≤ 1000 nM.
The same measure, in the same setting: with `Cn1cnc(S(=O)(=O)N2C[C@@H](Nc3cccc(F)c3)[C@H](c3ccccc3Cl)C2)c1` (relative stereo) [Example 252, trans-4-(2-chlorophenyl)-N-(3-fluorophenyl)-1-[(1-methyl-1H-imidazol-4-yl)sulfonyl]pyrrolidin-3-amine] the figure was ≤ 1000 nM.
Regarding `Cn1cnc(S(=O)(=O)N2C[C@@H](NC(=O)c3cccc(C(F)(F)F)c3Cl)[C@H](c3cccc(F)c3)C2)c1` (relative stereo) [Example 55, 2-chloro-N-{trans-4-(3-fluorophenyl)-1-[(1-methyl-1H-imidazol-4-yl)sulfonyl]pyrrolidin-3-yl}-3-(trifluoromethyl)benzamide], the Ki is ≤ 1000 nM.
On the same count and under the same terms, with `Cn1cnc(S(=O)(=O)N2C[C@H](NC(=O)NCc3ccccc3)[C@@H](c3ccc(F)cc3)C2)c1` [Example 742, 1-benzyl-3-{(3R,4S)-4-(4-fluorophenyl)-1-[(1-methyl-1H-imidazol-4-yl)sulfonyl]pyrrolidin-3-yl}urea] the figure was ≤ 1000 nM.
`Cn1cnc(S(=O)(=O)N2C[C@@H](Nc3cc(C(F)(F)F)ncn3)[C@H](C3CCCCO3)C2)c1` (relative stereo) [Example 687, N-[Trans-1-[(1-methyl-1H-imidazol-4-yl)sulfonyl]-4-(tetrahydro-2H-pyran-2-yl)pyrrolidin-3-yl]-6-(trifluoromethyl)pyrimidin-4-amine]: the inhibitory constant (Ki) is ≤ 100 nM.
As for `Cn1cnc(S(=O)(=O)N2C[C@@H](NC(=O)c3ccc(F)cc3)[C@H](c3ccccc3)C2)c1` (relative stereo) [Example 19, 4-fluoro-N-{trans-1-[(1-methyl-1H-imidazol-4-yl)sulfonyl]-4-phenylpyrrolidin-3-yl}benzamide], the Ki is ≤ 10000 nM.
For the compound `CCC(CC)CN[C@H]1CN(S(=O)(=O)c2cn(C)cn2)C[C@@H]1c1ccccc1` [Example 449, (3R,4S)-N-(2-ethylbutyl)-1-[(1-methyl-1H-imidazol-4-yl)sulfonyl]-4-phenylpyrrolidin-3-amine], the Ki is ≤ 1000 nM.
The same measure, in the same setting: for `Cn1cnc(S(=O)(=O)N2C[C@H](NCCCCC(C)(F)F)[C@@H](c3ccc(F)cc3)C2)c1` [Example 739, (3R,4S)-N-(5,5-difluorohexyl)-4-(4-fluorophenyl)-1-[(1-methyl-1H-imidazol-4-yl)sulfonyl]pyrrolidin-3-amine] the value was ≤ 100 nM; for `CCCc1cc(N[C@H]2CN(S(=O)(=O)c3cn(C)cn3)C[C@@H]2c2ccc(F)cc2)ncn1` [Example 616, N-{(3R,4S)-4-(4-fluorophenyl)-1-[(1-methyl-1H-imidazol-4-yl)sulfonyl]pyrrolidin-3-yl}-6-propylpyrimidin-4-amine], ≤ 1000 nM.
Take `Cn1cnc(S(=O)(=O)N2C[C@@H](C(=O)NCc3ccc(Cl)cc3)[C@H](c3ccc(F)cc3)C2)c1` (relative stereo) [Example 629, Trans-N-(4-chlorobenzyl)-4-(4-fluorophenyl)-1-[(1-methyl-1H-imidazol-4-yl)sulfonyl]pyrrolidine-3-carboxamide]: the Ki was ≤ 1000 nM.
Still for that read-out and setting: with `O=C(N[C@@H]1CN(S(=O)(=O)CC2CC2)C[C@H]1c1ccccc1)c1ccc(C(F)(F)F)cc1` (relative stereo) [Example 128, N-{trans-1-[(cyclopropylmethyl)sulfonyl]-4-phenylpyrrolidin-3-yl}-4-(trifluoromethyl)benzamide] the figure was ≤ 10000 nM; with `Cn1cnc(S(=O)(=O)N2C[C@@H](OCc3cccc(S(C)(=O)=O)c3)[C@H](c3ccc(F)cc3)C2)c1` (relative stereo) [Example 714, 4-{[trans-3-(4-fluorophenyl)-4-{[3-(methylsulfonyl)benzyl]oxy}pyrrolidin-1-yl]sulfonyl}-1-methyl-1H-imidazole], ≤ 10000 nM; with `Cc1cccc(NC(=O)[C@@H]2CN(S(=O)(=O)c3cn(C)cn3)C[C@H]2c2ccc(F)cc2)c1` (relative stereo) [Example 316, trans-4-(4-fluorophenyl)-1-[(1-methyl-1H-imidazol-4-yl)sulfonyl]-N-(3-methylphenyl)pyrrolidine-3-carboxamide], ≤ 1000 nM.
With `Cn1cnc(S(=O)(=O)N2C[C@@H](NC(=O)c3cccc(Cl)c3Cl)[C@H](c3ccccc3)C2)c1` (relative stereo) [Example 31, 2,3-dichloro-N-{trans-1-[(1-methyl-1H-imidazol-4-yl)sulfonyl]-4-phenylpyrrolidin-3-yl}benzamide], the Ki was ≤ 1000 nM.
As for `Cn1cnc(S(=O)(=O)N2C[C@@H](Nc3ccc(Cl)cc3)[C@H](c3ccccc3Cl)C2)c1` (relative stereo) [Example 254, trans-4-(2-chlorophenyl)-N-(4-chlorophenyl)-1-[(1-methyl-1H-imidazol-4-yl)sulfonyl]pyrrolidin-3-amine], the Ki is ≤ 10000 nM.
As for `Cn1cnc(S(=O)(=O)N2C[C@@H](C(=O)NCc3cccc(Cl)c3)[C@H](c3ccc(F)cc3)C2)c1` (relative stereo) [Example 628, Trans-N-(3-chlorobenzyl)-4-(4-fluorophenyl)-1-[(1-methyl-1H-imidazol-4-yl)sulfonyl]pyrrolidine-3-carboxamide], the Ki is ≤ 10 nM.
For `Cn1cnc(S(=O)(=O)N2C[C@@H](NC(=O)c3cc(Cl)cc(Cl)c3)[C@H](c3ccc(F)cc3)C2)c1` (relative stereo) [Example 65, 3,5-dichloro-N-{trans-4-(4-fluorophenyl)-1-[(1-methyl-1H-imidazol-4-yl)sulfonyl]pyrrolidin-3-yl}benzamide], the Ki is ≤ 1000 nM.
With `Cn1cnc(S(=O)(=O)N2C[C@@H](NCc3ccc(C(F)(F)F)cc3Cl)[C@H](C3CCCCO3)C2)c1` (relative stereo) [Example 680, Trans-N-[2-chloro-4-(trifluoromethyl)benzyl]-1-[(1-methyl-1H-imidazol-4-yl)sulfonyl]-4-(tetrahydro-2H-pyran-2-yl)pyrrolidin-3-amine], the Ki is ≤ 100 nM.
For `Cc1cc(CN[C@H]2CN(S(=O)(=O)c3cn(C)cn3)C[C@@H]2c2ccccc2)sc1C` [Example 455, (3R,4S)-N-[(4,5-dimethylthiophen-2-yl)methyl]-1-[(1-methyl-1H-imidazol-4-yl)sulfonyl]-4-phenylpyrrolidin-3-amine], the Ki is ≤ 100 nM.
On the same count and under the same terms, with `Cn1cnc(S(=O)(=O)N2C[C@@H](Nc3ccc(F)cc3)[C@H](c3ccc(F)cc3)C2)c1` [Example 324, (3S,4R)-N,4-bis(4-fluorophenyl)-1-[(1-methyl-1H-imidazol-4-yl)sulfonyl]pyrrolidin-3-amine] the figure was ≤ 10000 nM; with `Cn1cnc(S(=O)(=O)N2C[C@@H](Nc3cccc(Cl)c3)[C@H](OCc3ccccc3)C2)c1` (relative stereo) [Example 400, Trans-4-(benzyloxy)-N-(3-chlorophenyl)-1-[(1-methyl-1H-imidazol-4-yl)sulfonyl]pyrrolidin-3-amine], ≤ 10000 nM.

The assay is the same for the next values; noted with them: radioligand binding, recombinant CHO cell membranes expressing human GlyT1c.
As to `Cn1cnc(S(=O)(=O)N2C[C@@H](Nc3ccc(F)c(Cl)c3)[C@H](C3CCCCO3)C2)c1` (relative stereo) [Example 815, Trans-N-(3-chloro-4-fluorophenyl)-1-[(1-methyl-1H-imidazol-4-yl)sulfonyl]-4-(tetrahydro-2H-pyran-2-yl)pyrrolidin-3-amine], the Ki was ≤ 100 nM.
On the same count and under the same terms, with “(3R,4S)-4-(1,3-dioxan-2-yl)-N,N-dihexyl-1-[(1-methyl-1H-imidazol-4-yl)sulfonyl]pyrrolidin-3-amine [Example 909]” the figure was ≤ 1000 nM; with `Cn1cnc(S(=O)(=O)N2C[C@@H](Nc3ccc(F)c(OC(F)(F)F)c3)[C@H](C3CCOC3)C2)c1` (relative stereo) [Example 831, trans -N-[4-fluoro-3-(trifluoromethoxy)phenyl]-1-[(1-methyl-1 H-imidazol-4-yl)sulfonyl] -4-(tetrahydrofuran-3-yl)pyrrolidin-3-amine], ≤ 1000 nM.
As to `Cn1cnc(S(=O)(=O)N2C[C@@H](NCc3ccc(C(F)(F)F)cc3Cl)[C@H](C3CCCO3)C2)c1` (relative stereo) [Example 822, Trans-N-[2-chloro-4-(trifluoromethyl)benzyl]-1-[(1-methyl-1H-imidazol-4-yl)sulfonyl]-4-(tetrahydrofuran-2-yl)pyrrolidin-3-amine], the Ki was ≤ 1000 nM.
Regarding `Cn1cnc(S(=O)(=O)N2C[C@@H](OCCNCC(F)(F)F)[C@H](c3ccc(F)cc3)C2)c1` (relative stereo) [Example 814, 2,2,2-trifluoro-N-[2-({trans-4-(4-fluorophenyl)-1-[(1-methyl-1H-imidazol-4-yl)sulfonyl]pyrrolidin-3-yl}oxy)ethyl]ethanamine], the Ki is ≤ 1000 nM.

These data come from EP2970215B1, “PYRROLIDINE DERIVATIVES, PHARMACEUTICAL COMPOSITIONS CONTAINING THEM, AND THEIR USE IN THERAPY” (AbbVie Deutschland GmbH & Co. KG, priority 2013, dated 2014).
